In patent US20020052363A1, “Inhibitors of prenyl-protein transferase” (priority 2000, published 2002):

Test system: prenyl-protein transferases
Assay: the disclosed assays (not specified which)

`Cc1cccc(Oc2cc(Cn3c(CN4CCN(C(=O)OC(C)(C)C)CC4)cnc3C)ccc2C#N)n1` [Example 1 Step G, 1-(tert-butoxycarbonyl)-4-[1-(3-((6-methyl-2-pyridyl)oxy)-4-cyanobenzyl)-2-methyl-5-imidazolylmethyl]piperazine] was tested, and the “activity in the disclosed assays” value was “active”.
